These results are taken from ChEMBL document CHEMBL4680185, “Discovery of novel cyclin-dependent kinase (CDK) and histone deacetylase (HDAC) dual inhibitors with potent in vitro and in vivo anticancer activity” (Eur J Med Chem, 2020).

Active and inactive are the calls of the source. The calls are words filed in the database; no cut-off is given here.

Test [1] relates to HCT-116. In words: cells. Type of test: functional. Conditions: Homo sapiens, time 72 hrs, read-out: GI.
Test [2] deals with NCI-H460. Kind of test: cells. Type of test: functional. The settings on record: Homo sapiens, time 72 hrs, read-out: GI.
Test [3] relates to HCT-116. In words: cells. Type of test: functional, cell-based. Conditions: Homo sapiens, HCT-116, 72 h.
Description: Antiproliferative activity against human HCT116 cells assessed as inhibition of cell growth incubated for 72 hrs by CCK-8 assay
The subject of test [4] is NCI-H460. Kind of test: cells. Type of test: functional, cell-based. The settings on record: Homo sapiens, NCI-H460, 72 h.
Description: Antiproliferative activity against human H460 cells assessed as inhibition of cell growth incubated for 72 hrs by CCK-8 assay
Test [5] deals with A-375. In words: cells. Type of test: functional, cell-based. Conditions: Homo sapiens, A-375, 72 h.
Description: Antiproliferative activity against human A375 cells assessed as inhibition of cell growth incubated for 72 hrs by CCK-8 assay
The next test deals with HeLa. In words: cells. Format: functional, cell-based. The settings on record: Homo sapiens, 72 h.
Another test deals with SMMC-7721. In words: cells. Format: functional, cell-based. The settings on record: Homo sapiens, SMMC-7721, 72 h.
The nature of test [6]: Cytotoxicity against mouse NIH/3T3 cells incubated for 72 hrs by CCK-8 assay. Format: cell-based. Conditions: NIH3T3, 72 h.
For a further test, the target named is Histone deacetylase 2 (Homo sapiens, UniProt Q92769). In words: Inhibition of human recombinant HDAC2 preincubated for 10 mins followed by addition of substrate fluor De Lys green measured after 30 mins by fluorescent plate reader analysis.
Test [7] relates to A-375. In words: Antimigratory activity against human A375 cells assessed as inhibition of cell migration at 0.25 uM measured after 48 hrs by cell scratch assay. Type of test: functional, cell-based.
The test system of test [8] is NCI-H460. Kind of test: Antimigratory activity against human H460 cells assessed as inhibition of cell migration at 0.5 uM measured after 48 hrs by cell scratch assay. Format: functional, cell-based.
For test [9], the system named is A-375. In words: Induction of apoptosis in human A375 cells assessed as number of apoptotic cells at 2 uM incubated for 48 hrs by annexin V-FITC/PI based flow cytometric analysis relative to control. Format: functional.
In test [10] the test system is HCT-116. In words: Induction of apoptosis in human HCT116 cells assessed as number of apoptotic cells at 2 uM incubated for 48 hrs by annexin V-FITC/PI based flow cytometric analysis relative to control. Format: functional. A general note: A flow cytometer gives signals particle by particle.
Test [11] concerns HCT-116. In words: cells. Format: functional. The settings on record: Homo sapiens, time 72 hrs, read-out: GI. This is another data set of the same source.
Test [12] has as its system NCI-H460. In words: cells. Type of test: functional. The settings on record: Homo sapiens, time 72 hrs, read-out: GI. This is another data set of the same source.
Test [13] has as its target Cyclin-dependent kinase 4/cyclin D1 (Homo sapiens, UniProt P11802). Kind of test: Inhibition of recombinant human full length CDK4/cyclin D1 expressed in Sf9 cells incubated for 10 mins by ADP-Glo reagent assay. On the technique in general: ADP-Glo turns the ADP formed in a reaction into a luminescent signal.
Another test concerns the target CDK6/cyclin D3 (Homo sapiens, UniProt Q00534). Kind of test: Inhibition of recombinant human full length CDK6/cyclin D3 incubated for 10 mins by ADP-Glo reagent assay. Type of test: protein-complex assay.
Test [14] addresses Cyclin-dependent kinase 7/ cyclin H (Homo sapiens, UniProt P50613). Kind of test: Inhibition of recombinant human full length CDK7/cyclin H1 expressed in Sf9 cells incubated for 10 mins by ADP-Glo reagent assay.

Chain of Cyclin-dependent kinase 4/cyclin D1 (P11802 whole entry): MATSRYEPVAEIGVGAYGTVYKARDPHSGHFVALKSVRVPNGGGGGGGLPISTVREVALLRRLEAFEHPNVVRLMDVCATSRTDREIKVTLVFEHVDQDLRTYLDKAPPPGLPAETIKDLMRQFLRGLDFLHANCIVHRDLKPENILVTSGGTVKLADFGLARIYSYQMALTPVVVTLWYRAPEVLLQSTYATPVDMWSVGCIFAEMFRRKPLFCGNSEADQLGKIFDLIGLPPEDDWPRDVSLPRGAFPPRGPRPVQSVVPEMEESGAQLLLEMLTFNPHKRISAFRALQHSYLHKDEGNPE
Chain of Cyclin-dependent kinase 4/cyclin D1 (P24385 whole entry, further chain): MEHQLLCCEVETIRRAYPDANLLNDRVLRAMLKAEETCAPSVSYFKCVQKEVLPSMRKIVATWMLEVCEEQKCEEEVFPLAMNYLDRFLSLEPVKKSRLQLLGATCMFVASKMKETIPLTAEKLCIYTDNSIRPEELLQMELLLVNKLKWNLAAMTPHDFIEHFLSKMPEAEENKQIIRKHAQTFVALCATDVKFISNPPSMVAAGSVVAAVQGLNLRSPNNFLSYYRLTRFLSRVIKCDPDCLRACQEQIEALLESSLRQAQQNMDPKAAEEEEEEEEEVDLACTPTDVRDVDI
Chain of Cyclin-dependent kinase 7/ cyclin H (P51946 whole entry): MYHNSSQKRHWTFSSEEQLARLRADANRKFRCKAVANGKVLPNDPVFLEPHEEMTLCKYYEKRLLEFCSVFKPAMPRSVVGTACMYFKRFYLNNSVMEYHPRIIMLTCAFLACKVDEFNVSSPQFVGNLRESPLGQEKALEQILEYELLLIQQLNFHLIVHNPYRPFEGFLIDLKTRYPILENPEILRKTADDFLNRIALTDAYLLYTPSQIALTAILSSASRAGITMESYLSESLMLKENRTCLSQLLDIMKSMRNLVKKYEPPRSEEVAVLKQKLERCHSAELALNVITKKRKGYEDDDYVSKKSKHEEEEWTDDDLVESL
Chain of Cyclin-dependent kinase 7/ cyclin H (P50613 whole entry): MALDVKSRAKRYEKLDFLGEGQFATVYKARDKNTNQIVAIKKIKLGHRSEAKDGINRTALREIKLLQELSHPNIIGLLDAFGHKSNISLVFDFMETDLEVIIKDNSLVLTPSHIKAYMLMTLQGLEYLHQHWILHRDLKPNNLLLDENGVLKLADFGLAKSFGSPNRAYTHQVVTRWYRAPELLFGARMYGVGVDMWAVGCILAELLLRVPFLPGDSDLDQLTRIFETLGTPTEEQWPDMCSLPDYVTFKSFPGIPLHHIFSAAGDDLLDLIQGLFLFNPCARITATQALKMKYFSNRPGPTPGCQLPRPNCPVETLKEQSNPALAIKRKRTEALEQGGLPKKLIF
Chain of CDK6/cyclin D3 (P30281 whole entry): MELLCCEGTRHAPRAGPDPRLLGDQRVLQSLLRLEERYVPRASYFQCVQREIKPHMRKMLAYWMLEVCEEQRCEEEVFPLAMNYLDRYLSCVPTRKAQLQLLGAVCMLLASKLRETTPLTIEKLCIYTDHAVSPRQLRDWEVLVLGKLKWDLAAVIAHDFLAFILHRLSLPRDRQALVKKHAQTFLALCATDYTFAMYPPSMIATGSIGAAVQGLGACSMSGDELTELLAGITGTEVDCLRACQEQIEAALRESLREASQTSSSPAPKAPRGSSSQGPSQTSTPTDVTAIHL
Chain of CDK6/cyclin D3 (Q00534 whole entry): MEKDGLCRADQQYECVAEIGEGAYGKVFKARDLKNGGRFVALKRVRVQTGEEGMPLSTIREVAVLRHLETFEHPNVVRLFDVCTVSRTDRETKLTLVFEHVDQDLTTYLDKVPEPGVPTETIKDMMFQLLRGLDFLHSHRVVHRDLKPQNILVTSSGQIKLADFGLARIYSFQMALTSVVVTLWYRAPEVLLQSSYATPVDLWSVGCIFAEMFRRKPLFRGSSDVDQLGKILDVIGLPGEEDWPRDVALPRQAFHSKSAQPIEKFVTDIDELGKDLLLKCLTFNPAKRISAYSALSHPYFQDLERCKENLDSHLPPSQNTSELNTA
Chain of Histone deacetylase 2 (Q92769 whole entry): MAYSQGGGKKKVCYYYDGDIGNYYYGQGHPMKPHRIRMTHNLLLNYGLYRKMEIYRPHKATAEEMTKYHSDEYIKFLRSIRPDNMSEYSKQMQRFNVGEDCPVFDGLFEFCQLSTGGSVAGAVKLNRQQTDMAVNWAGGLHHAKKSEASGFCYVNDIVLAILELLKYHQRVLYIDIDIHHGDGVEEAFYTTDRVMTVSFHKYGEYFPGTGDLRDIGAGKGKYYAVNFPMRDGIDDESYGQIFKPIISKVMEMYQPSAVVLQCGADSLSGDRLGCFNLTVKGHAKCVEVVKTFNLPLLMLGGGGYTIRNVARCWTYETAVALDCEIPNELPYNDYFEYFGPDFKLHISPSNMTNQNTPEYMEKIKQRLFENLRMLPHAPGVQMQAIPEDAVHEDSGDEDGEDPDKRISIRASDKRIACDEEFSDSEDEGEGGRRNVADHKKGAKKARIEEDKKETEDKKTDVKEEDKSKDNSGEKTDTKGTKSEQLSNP
Description for HeLa: Antiproliferative activity against human Hela cells assessed as inhibition of cell growth incubated for 72 hrs by CCK-8 assay
Description for SMMC-7721: Antiproliferative activity against human SMMC7721 cells assessed as inhibition of cell growth incubated for 72 hrs by CCK-8 assay

With `Nc1ccc(F)cc1NC(=O)c1ccc(CNC(=O)/C=C/c2cccnc2)cc1`, the inhibition of growth at 8 µM is 72.2% in the test on HCT-116 [1] and 38.2% in the test with NCI-H460 [2]. For the same compound, the IC50 – broadly, the concentration that inhibits the measured activity by half – was 2.77 µM in the test with HCT-116 [3]; > 32 µM with NCI-H460 [4]; 4.11 µM in the test on A-375 [5]; 14.9 µM in the test with HeLa; 25.6 µM with SMMC-7721; 2.46 µM in test [6]. In addition, the IC50 on Histone deacetylase 2 came to 0.023 µM. Also, the inhibition result with A-375 [7] and in the test with NCI-H460 [8] was “Active” throughout. The Activity is recorded as 62.6% in the test on A-375 [9] and 44.3% in the test with HCT-116 [10]. The inhibition of growth at 2 µM in the test on HCT-116 [11] amounted to 64.4%; with NCI-H460 [12], 1.73%.

Turning to `O=C(Nc1ccc(F)cc1)c1n[nH]cc1NC(=O)c1c(F)cccc1F`, the inhibition of growth at 8 µM in the test with HCT-116 [1] is 74%; in the test on NCI-H460 [2], 59.1%. Also, the IC50 in the test with HCT-116 [3] worked out at 1.96 µM; with NCI-H460 [4], 9.46 µM; in the test on A-375 [5], 13.4 µM; with HeLa, 8.23 µM; with SMMC-7721, 23.2 µM; in test [6] it was 7.85 µM. Further, the IC50 (in test [13]; on CDK6/cyclin D3; in test [14]) was > 1 µM throughout. Also, the inhibition entry with A-375 [7] and in the test on NCI-H460 [8] was “Active” throughout. For the same compound, the Activity in the test with A-375 [9] came out at 66.71%; in the test on HCT-116 [10], 48%. Besides, the inhibition of growth at 2 µM was 57.6% with HCT-116 [11] and 21.3% in the test on NCI-H460 [12].

With `Nc1ccccc1NC(=O)c1ccc(CNC(=O)c2n[nH]cc2NC(=O)c2ccccc2F)cc1`, the inhibition of growth at 8 µM in the test with HCT-116 [1] amounted to 81.2%; with NCI-H460 [2], 57.6%. Further, the IC50 with HCT-116 [3] amounted to 4.8 µM; in the test with NCI-H460 [4], 9.99 µM; with A-375 [5] it was 2.27 µM; in the test on HeLa it was 3.44 µM; in the test on SMMC-7721, 6.85 µM. Besides, the values for the inhibition of growth at 2 µM in the test on HCT-116 [11] and in the test with NCI-H460 [12] were 39.8% and 7.25%, respectively.

In the case of `Nc1ccccc1NC(=O)c1ccc(CNC(=O)c2n[nH]cc2NC(=O)c2c(F)cccc2F)cc1`, the results for the inhibition of growth at 8 µM with HCT-116 [1] and with NCI-H460 [2] were 79.1% and 80.5%, respectively. In addition, the IC50 was found to be 1.13 µM in the test with HCT-116 [3]; 7.79 µM in the test on NCI-H460 [4]; 1.7 µM in the test with A-375 [5]; 4.48 µM in the test on HeLa; 15.2 µM in the test on SMMC-7721. For the same compound, the figures for the inhibition of growth at 2 µM with HCT-116 [11] and in the test on NCI-H460 [12] were 73.1% and 13.9%, respectively.

On to `Nc1ccccc1NC(=O)Cc1ccc(NC(=O)c2n[nH]cc2NC(=O)c2c(F)cccc2F)cc1`, for which the inhibition of growth at 8 µM in the test with HCT-116 [1] worked out at 81.6%; with NCI-H460 [2], 73.8%. Also, the IC50 in the test on HCT-116 [3] stood at 3.46 µM; in the test on NCI-H460 [4] it was 4.99 µM; in the test with A-375 [5], 2.97 µM; in the test on HeLa it was 8.89 µM; with SMMC-7721 it was 16.5 µM. Moreover, the inhibition of growth at 2 µM came out at 76.8% in the test on HCT-116 [11] and 3.52% in the test on NCI-H460 [12].
